Assay results from US9012411B2, “Formulations from derivatives of curcumin, paclitaxel, and aspirin” (Organomed Corporation, priority 2009, dated 2015).
Where a name gives a salt, the structure may show the parent alone. Marks after values point to notes of the source that are not given here.

Experiments:
[1] = water at 25° C.; Merck Index; cited from earlier work
[2] = test system: carrageenan induced rat paw edema; assay: Carrageenan induced rat paw edema; format: in vivo, albino rats; settings: for Percent inhibition of paw edema (Std. Error): Example 9, 100 mg/kg oral with food
Protocol: Animals were kept under 13 hour day night cycle. Animals were given standard diet and water was provided ad, libitum. All animals were acclimatized for at least one week before the experimental session. Animals were divided in to five groups. Each group consisted of 8 animals.
Pedal inflammation in albino rats of either sex was produced according to the method of Winter et al., (Proc Soc Exp Biol Med 1963; 111: 544-7). An injection was made with 0.1 ml of 1% carrageenan (SIGMA) suspension into the right hind foot of each rat in the plantar region. […] Control group 5 was given 0.5 ml saline and groups 1 and 2 received aspirin. Increase in linear paw circumference was measured by tying a piece of cotton thread round the rat's paw, and noting the point of intersection of two ends on a meter scale. This was taken as an index of increase in paw volume, which is a measure of oedema (Bamgbose S O A, Noamesi B K. Planta Med 1981; 42: 392-6). Measurements were taken immediately before and at 1, 2 and 3 hours after carrageenan injection. The inhibitory activity was calculated according to the following formula (Awe S O, Olajide O A, Adeboye J O, Makinde J M. Indian J Pharmacol 1998; 30: 38-42):
[formula] Ct-Linear paw circumference 3 hours after carrageenan injection and Co-Linear paw circumference before carrageenan injection.
Albino rats obtained from central animal house of institute were used in the study. The animals were kept under 12 hour day night cycle. Animals were given standard diet and water was provided ad libitum. All animals were acclimatized for at least one week before the experimental session. Animals were divided into twelve groups in the carrageenan induced paw edema and tail flick method. Each group consisted of 4 animal each.
Animals were divided into eight groups in the carrageenan induced paw edema and tail flick method. Each group consisted of 6 animal each. The groups received various chemicals as given in Table 16 by oral administration with food. The following methods were used to evaluate the activity of the compositions:
Pedal inflammation in albino rats of either sex was produced according to the method of Winter et al. (Proc. Soc. Exp. Biol. Med., 1963, 111: 544-547). An injection was made with 0.1 ml of 1% carrageenan (SIGMA) suspension into the right hind foot of each rat in the plantar region. The various chemicals were given 30 minutes before carrageenan injection. Increase in linear paw circumference was measured by tying a piece of cotton thread round the rat's paw, and noting the point of intersection of two ends on a meter scale. This was taken as an index of increase in paw volume, which is a measure of edema (Bamgbose, S. O. A. & Noamesi, B. K., Planta. Med., 1981, 42: 392-396). Measurements were taken immediately before and at 1, 2 and 3 hours after carrageenan injection. The inhibitory activity was calculated according to the following formula (Awe S O, Olajide O A, Adeboye J O, Makinde J M. Indian J. Pharmacol., 1998; 30: 38-42):
Animals were divided into six groups in the carrageenan induced paw edema and tail flick method. Each group consisted of 8 animals each. Carrageenan-induced rat paw edema and Tail flick test were performed as discussed above in Example 8. Data were analyzed using analysis of variance (ANOVA) with Posthoc Bonferroni multi-comparisons. P<0.05 was considered as statistically significant.

[3] = test system: cancer cell lines SKBR3, Panc1, PC-3; assay: Cellular inhibition, Alamar Blue, cancer cell lines taken together; format: cell-based; settings: 24 hours
Protocol: (§1) Assays were performed with 3 cancer cell lines: breast (SKBR3), pancreatic (Panc1), prostate (PC-3) and 1 normal (nor-cancer) cell line (WI-38). Compounds were delivered to the cells after dissolving in DMSO. Five dilutions per compound were tested on a total of 4 cell lines in 96 well plates. Cellular inhibition was measured using Alamar Blue. After addition of compound a 24 hour and 48 hour time point using fluorescent plate reader was taken. Data from plate reader was analyzed in the following way: % inhibition bar graphs, % inhibition line graphs and IC50 growth inhibition values. In Tables 7-14, IC50 units are Molar (M).

[4] = In vitro enzyme hydrolysis in human serum (HPLC); format: in vitro ADME; settings: 25% human serum; for Average rate, test compound: decomposition of test compound; for Test compound Rate: rate of decomposition of test compound; for Test compound Concentration: remaining test compound; for Salicyclic acid Rate: rate of release of salicylic acid; for Salicyclic acid Concentration: salicylic acid released from test compound, 0.2 mg/mL
Protocol: A 25% solution of human serum in 0.01M phosphate buffer was taken and the test compound (glucose aspirin or aspirin) were added to get a concentration of 0.2 mg/mL. The hydrolysis for the rate of release of salicylic acid and the rate of decomposition of the test compound were measured by HPLC.

[5] = test system: tail flick latency in rats; assay: Tail flick test (analgesic activity); format: in vivo, albino rats; settings: for Tail flick latency / analgesic activity (in words): Example 5, 100 and 200 mg/kg i.p., rats
Protocol: Rats were screened for tail flip reaction with a cut-off time of 5 seconds. For each animal, the tail flick latency was obtained thrice before drug administration and mean was used as pre-drug latency. The tail flick latencies were measured at 0, 0.5, 1, 1.5, 2 and 3 h after administration chemicals.
Albino rats obtained from central animal house of institute were used in the study. The animals were kept under 12 hour day night cycle. Animals were given standard diet and water was provided ad libitum. All animals were acclimatized for at least one week before the experimental session. […] Each group consisted of 4 animal each.
Rats were screened for tail flip reaction with a cut-off time of 5 seconds. For each animal, the tail flick latency was obtained thrice before drug administration and mean was used as pre-drug latency. The tail flick latencies were measured at 0, 0.5, 1, 1.5, 2 and 3 h after administration of chemicals.
Each group consisted of 8 animals each. […] Data were analyzed using analysis of variance (ANOVA) with Posthoc Bonferroni multi-comparisons. P<0.05 was considered as statistically significant.

[6] = test system: prostate (PC-3) cancer cell line; assay: Cellular inhibition, Alamar Blue; format: cell-based; settings: for inhibition of proliferation: PC-3, 48 hours
Protocol: as §1

[7] = test system: breast (SKBR3) cancer cell line; assay: Cellular inhibition, Alamar Blue; format: cell-based; settings: for inhibition of proliferation: skbr3, 48 hours
Protocol: as §1

[8] = test system: pancreatic (Panc1) cancer cell line; assay: Cellular inhibition, Alamar Blue; format: cell-based; settings: for inhibition of proliferation: Panc-1, 48 hours
Protocol: as §1

[9] = test system: normal (non-cancer) cell line WI-38; assay: Cellular inhibition, Alamar Blue; format: cell-based
Protocol: as §1

PANC-1 cells = assay: GI50 (50% inhibition of cell growth), MTT assay, 72 hours; format: cell-based; settings: Homo sapiens, PANC-1, 72 h, 1 ng/ml to 10 ug/ml (Example 8)
Protocol: (§2) The cells were plated onto a 96 well plate and treated with different concentrations of the compounds from 1 ng/ml to 10 ug/ml for 72 hours followed by MTT assay.
(§3) The cells were plated onto a 96 well plate and treated with different concentrations of the compounds from 0.04 ng/ml to 400 ng/ml for 72 hours followed by MTT assay.

PC3 cells = assay: as above; format: cell-based; settings: Homo sapiens, PC-3, 72 h, PC3, 72 hours, 1 ng/ml to 10 ug/ml (Example 8)
Protocol: as §2, §3

[10] = Example 6, 50-200 mg/kg, compared with control groups and aspirin

## CC(=O)Oc1ccccc1C(=O)O [Aspirin, acetylsalicylic acid]
[1]
  Aspirin solubility in water: 0.33 g/100 mL
[2]; Example 6, 100 mg/kg, 0 h
  Paw circumference: 3.125 ± 0.13 mm
[2]; Example 6, 100 mg/kg, 1 h
  Paw circumference: 3.475 ± 0.15 mm
[2]; Example 6, 100 mg/kg, 2 h
  Paw circumference: 3.6 ± 0.14 mm
[2]; Example 6, 100 mg/kg, 3 h
  Paw circumference: 3.475 ± 0.10 mm
[2]; Example 6, 200 mg/kg, 0 h
  Paw circumference: 3.3 ± 0.18 mm
[2]; Example 6, 200 mg/kg, 1 h
  Paw circumference: 3.425 ± 0.21 mm
[2]; Example 6, 200 mg/kg, 2 h
  Paw circumference: 3.575 ± 0.13 mm
[2]; Example 6, 200 mg/kg, 3 h
  Paw circumference: 3.55 ± 0.10 mm
[2]; [10]
  % inhibition of paw edema (in words): significantly inhibited the development of the edema
[2]; Example 8 (in vivo), 100 mg/kg oral with food, 0 h
  Paw circumference: 3.4 mm
[2]; Example 8 (in vivo), 100 mg/kg oral with food, 1 h
  Paw circumference: 3.82 mm
[2]; Example 8 (in vivo), 100 mg/kg oral with food, 2 h
  Paw circumference: 3.58 mm
[2]; Example 8 (in vivo), 100 mg/kg oral with food, 3 h
  Paw circumference: 3.67 mm
[2]; 1 hr
  Percent inhibition of paw edema (Std. Error): 55.44%
[2]; 2 hr
  Percent inhibition of paw edema (Std. Error): 79.16%
[2]; 3 hr
  Percent inhibition of paw edema (Std. Error): 75.29%
[3]
  inhibition of cancer cell growth (in words): did not seem to inhibit growth by any significant means
[4]; 0-180 min
  Average rate, test compound: -1.57e-06 M/min
[4]; 0 min
  Test compound Rate: 0 M/min
  Test compound Concentration: 457 µM
[4]; 30 min
  Test compound Rate: -1.4e-06 M/min
  Test compound Concentration: 415 µM
[4]; 60 min
  Test compound Rate: -9.81e-07 M/min
  Test compound Concentration: 399 µM
[4]; 90 min
  Test compound Rate: -2.32e-06 M/min
  Test compound Concentration: 248 µM
[4]; 120 min
  Test compound Rate: -1.56e-06 M/min
  Test compound Concentration: 270 µM
[4]; 180 min
  Test compound Rate: -1.58e-06 M/min
  Test compound Concentration: 174 µM
[5]
  Tail flick latency / analgesic activity (in words): significant increase in the tail flick latency
[5]; Example 6, 100 mg/kg, 0 min
  Tail flick latency time: 1.64 ± 0.27 s
[5]; Example 6, 100 mg/kg, 30 min
  Tail flick latency time: 3.28 ± 0.26 s
[5]; Example 6, 100 mg/kg, 60 min
  Tail flick latency time: 3.28 ± 0.57 s
[5]; Example 6, 100 mg/kg, 90 min
  Tail flick latency time: 2.88 ± 0.26 s
[5]; Example 6, 100 mg/kg, 120 min
  Tail flick latency time: 2.73 ± 0.48 s
[5]; Example 6, 100 mg/kg, 180 min
  Tail flick latency time: 2.05 ± 0.76 s
[5]; Example 6, 200 mg/kg, 0 min
  Tail flick latency time: 2.32 ± 0.46 s
[5]; Example 6, 200 mg/kg, 30 min
  Tail flick latency time: 3.46 ± 0.77 s
[5]; Example 6, 200 mg/kg, 60 min
  Tail flick latency time: 3.46 ± 0.17 s
[5]; Example 6, 200 mg/kg, 90 min
  Tail flick latency time: 3.03 ± 0.42 s
[5]; Example 6, 200 mg/kg, 120 min
  Tail flick latency time: 3.12 ± 0.30 s
[5]; [10]
  % MPE / analgesic activity in tail flick test (in words): significantly more
[5]; Example 8 (in vivo), 100 mg/kg oral with food, 0 min
  Tail flick latency time: 2.37 s
[5]; Example 8 (in vivo), 100 mg/kg oral with food, 30 min
  Tail flick latency time: 2.75* seconds
[5]; Example 8 (in vivo), 100 mg/kg oral with food, 60 min
  Tail flick latency time: 2.68 s
[5]; Example 8 (in vivo), 100 mg/kg oral with food, 90 min
  Tail flick latency time: 2.57 s
[5]; Example 8 (in vivo), 100 mg/kg oral with food, 120 min
  Tail flick latency time: 2.23 s
[5]; Example 8 (in vivo), 100 mg/kg oral with food, 180 min
  Tail flick latency time: 2.37 s
[6]; PC3, 24 hours
  IC50: 771 µM
[6]; PC3, 48 hours
  IC50: 782 µM
[7]; Homo sapiens, SK-BR-3, SKBR3, 24 hours
  IC50: 731 µM
[7]; Homo sapiens, SK-BR-3, SKBR3, 48 hours
  IC50: 693 µM
[8]; Homo sapiens, PANC-1, PANC1, 24 hours
  IC50: 975 µM
[8]; Homo sapiens, PANC-1, PANC1, 48 hours
  IC50: 745 µM
[9]; Homo sapiens, WI-38, WI38, 24 hours
  IC50: 619 µM
[9]; Homo sapiens, WI-38, WI38, 48 hours
  IC50: 501 µM

## Nc1ccn([C@@H]2O[C@H](CO)[C@@H](O)C2(F)F)c(=O)n1 [NJ-92-1, Gemcitabine.HCl]
PANC-1 cells
  GI50: 7.18 µg/mL
PC3 cells
  GI50: 3.85 µg/mL

## CC(=O)Oc1ccccc1C(=O)O[C@@H]([C@H](O)[C@H](O)CO)[C@@H](O)C=O [PMN II-168, 3-(2′-Acetyloxybenzoyl)-D-glucose]
[2]; Example 5, 100 and 200 mg/kg i.p., rats
  Suppression of carrageenan-induced paw edema (in words): significantly suppressed carrageenan-induced paw edema
[3]; 300 uM
  inhibition of cancer cell growth: up to 60%
[3]; four lower concentrations
  inhibition of cancer cell growth: 20%
[4]; compared with aspirin
  Hydrolysis rate in human serum (in words): much slower rate than aspirin
[4]; 0-180 min
  Average rate, test compound: -3.3e-07 M/min
[4]; 0 min
  Test compound Rate: 0 M/min
  Salicyclic acid Rate: 0 M/min
  Test compound Concentration: 198 µM
  Salicyclic acid Concentration: 0 µM
[4]; 30 min
  Test compound Rate: 1.91e-07 M/min
  Salicyclic acid Rate: 0 M/min
  Test compound Concentration: 203 µM
  Salicyclic acid Concentration: 0 µM
[4]; 60 min
  Test compound Rate: -2.24e-07 M/min
  Test compound Concentration: 184 µM
  Salicyclic acid Concentration: 2.7 µM
[4]; 90 min
  Test compound Rate: -3.62e-07 M/min
  Test compound Concentration: 165 µM
  Salicyclic acid Concentration: 2.75 µM
[4]; 120 min
  Test compound Rate: -2.96e-07 M/min
  Salicyclic acid Rate: 9.11e-07 M/min
  Test compound Concentration: 162 µM
  Salicyclic acid Concentration: 10.9 µM
[4]; 180 min
  Test compound Rate: -4.38e-07 M/min
  Salicyclic acid Rate: 1.97e-07 M/min
  Test compound Concentration: 119 µM
  Salicyclic acid Concentration: 35.4 µM
[4]; release of salicylic acid, 0-180 min
  Average rate, salicyclic acid: 9.08e-08 M/min
[5]
  Tail flick latency / analgesic activity (in words): significant analgesic activity
[6]; PC3, 24 hours
  IC50: 83.2 µM
[6]; PC3, 48 hours
  IC50: 81.4 µM
[6]; 150 uM
  inhibition of proliferation: ~65%
[6]; 300 uM
  inhibition of proliferation: ~85%
[7]; SKBR3, 24 hours
  IC50: 201 µM
[7]; SKBR3, 48 hours
  IC50: 87.8 µM
[7]; 150 uM
  inhibition of proliferation: ~60%
[7]; 300 uM
  inhibition of proliferation: approximately 90%
[8]; PANC1, 24 hours
  IC50: 399 µM
[8]; PANC1, 48 hours
  IC50: 90.5 µM
[8]; 150 uM
  inhibition of proliferation: ~60%
[8]; 300 uM
  inhibition of proliferation: ~70%
[9]; WI38, 24 hours
  IC50: 376 µM
[9]; WI38, 48 hours
  IC50: 310 µM
